The text below walks through data of ChEMBL document CHEMBL5465560, “Selectivity Literature for EUbOPEN Chemogenomic Library” (2024).

By IC50 is commonly meant the concentration needed to halve the response being measured. Read a low IC50 as inhibition by little substance.

Experiment [1] deals with T1, Phosphatidylinositol 3-kinase C2 domain-containing subunit gamma (Homo sapiens) (UniProt O75747).
T1 sequence (whole entry): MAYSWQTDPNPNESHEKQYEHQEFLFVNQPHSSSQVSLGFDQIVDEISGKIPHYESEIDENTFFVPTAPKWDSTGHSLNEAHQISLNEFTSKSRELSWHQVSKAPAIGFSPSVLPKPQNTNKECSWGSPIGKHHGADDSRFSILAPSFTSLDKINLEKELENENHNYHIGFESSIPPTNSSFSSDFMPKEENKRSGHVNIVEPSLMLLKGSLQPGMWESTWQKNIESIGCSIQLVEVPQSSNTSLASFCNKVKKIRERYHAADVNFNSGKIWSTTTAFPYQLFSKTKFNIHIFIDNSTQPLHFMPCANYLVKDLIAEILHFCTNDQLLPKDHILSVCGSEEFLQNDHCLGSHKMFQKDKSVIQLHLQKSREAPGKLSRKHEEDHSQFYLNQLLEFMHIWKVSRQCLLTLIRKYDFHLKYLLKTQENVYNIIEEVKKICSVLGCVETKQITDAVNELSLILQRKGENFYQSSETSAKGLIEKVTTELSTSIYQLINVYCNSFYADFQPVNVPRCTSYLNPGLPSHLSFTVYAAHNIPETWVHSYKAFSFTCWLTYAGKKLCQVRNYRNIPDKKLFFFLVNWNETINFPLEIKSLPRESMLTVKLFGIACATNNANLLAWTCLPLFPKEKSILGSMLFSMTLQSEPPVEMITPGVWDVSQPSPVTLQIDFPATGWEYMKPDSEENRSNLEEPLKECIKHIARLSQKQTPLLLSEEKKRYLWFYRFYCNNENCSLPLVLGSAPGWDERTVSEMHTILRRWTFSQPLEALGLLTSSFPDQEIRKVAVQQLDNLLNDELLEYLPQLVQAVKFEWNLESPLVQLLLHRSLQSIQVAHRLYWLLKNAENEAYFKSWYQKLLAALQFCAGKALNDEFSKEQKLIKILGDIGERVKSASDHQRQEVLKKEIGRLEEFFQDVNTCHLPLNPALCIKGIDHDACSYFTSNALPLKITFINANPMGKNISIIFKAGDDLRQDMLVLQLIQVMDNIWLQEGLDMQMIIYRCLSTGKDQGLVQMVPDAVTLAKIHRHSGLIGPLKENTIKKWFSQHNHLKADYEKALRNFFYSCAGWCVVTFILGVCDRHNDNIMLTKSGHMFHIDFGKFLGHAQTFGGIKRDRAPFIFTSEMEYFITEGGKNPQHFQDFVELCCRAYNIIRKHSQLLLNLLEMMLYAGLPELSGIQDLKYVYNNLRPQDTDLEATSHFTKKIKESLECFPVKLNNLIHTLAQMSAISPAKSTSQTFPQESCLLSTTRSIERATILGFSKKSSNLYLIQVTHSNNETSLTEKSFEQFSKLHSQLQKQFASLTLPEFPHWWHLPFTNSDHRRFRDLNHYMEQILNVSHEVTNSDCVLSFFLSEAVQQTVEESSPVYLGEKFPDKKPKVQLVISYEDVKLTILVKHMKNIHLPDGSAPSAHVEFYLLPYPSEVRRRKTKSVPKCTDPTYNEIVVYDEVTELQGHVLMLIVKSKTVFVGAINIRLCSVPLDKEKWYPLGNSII
The experiment can be described thus: Selectivity interaction (KinomeScan (DiscoverX)) EUB0000666a PIK3C2G. To be noted: at 10 µM.

Experiment [2] addresses T2, Inhibitor of nuclear factor kappa-B kinase subunit epsilon (Homo sapiens) (UniProt Q14164).
T2 sequence (whole entry): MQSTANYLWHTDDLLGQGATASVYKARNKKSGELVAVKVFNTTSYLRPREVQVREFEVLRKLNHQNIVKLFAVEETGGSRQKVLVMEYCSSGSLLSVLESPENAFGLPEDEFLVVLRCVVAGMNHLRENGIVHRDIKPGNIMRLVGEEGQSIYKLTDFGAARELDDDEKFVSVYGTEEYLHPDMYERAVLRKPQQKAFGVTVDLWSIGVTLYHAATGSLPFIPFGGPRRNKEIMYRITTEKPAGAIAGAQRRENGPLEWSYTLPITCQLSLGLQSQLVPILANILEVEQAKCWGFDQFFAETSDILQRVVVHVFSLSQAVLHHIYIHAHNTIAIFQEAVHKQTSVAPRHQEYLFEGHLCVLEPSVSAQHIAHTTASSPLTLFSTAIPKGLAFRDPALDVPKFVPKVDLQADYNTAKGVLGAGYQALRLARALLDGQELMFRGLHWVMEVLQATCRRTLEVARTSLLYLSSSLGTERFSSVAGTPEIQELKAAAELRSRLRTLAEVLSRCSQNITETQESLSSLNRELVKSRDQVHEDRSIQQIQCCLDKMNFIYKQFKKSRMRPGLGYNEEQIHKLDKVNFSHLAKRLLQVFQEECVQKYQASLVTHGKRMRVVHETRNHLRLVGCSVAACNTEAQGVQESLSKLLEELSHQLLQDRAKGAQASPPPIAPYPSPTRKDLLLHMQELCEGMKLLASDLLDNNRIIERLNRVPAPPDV
The experiment can be described thus: Selectivity interaction (Kinase panel (Z-LYTE Assay)) EUB0001632a IKBKE. The note with it: at 10 µM.

The target of experiment [3] is Serine/threonine-protein kinase SIK1 (Homo sapiens) (UniProt P57059). The experiment can be described thus: Selectivity interaction (LanthaScreen Eu Kinase Binding Assay) EUB0001632a SIK1. To be noted: at 10 µM. (In general: Time-resolved FRET reads energy transfer from a long-lived donor to a nearby acceptor.)
Experiment [4] addresses T3, Serine/threonine-protein kinase 3 (Homo sapiens) (UniProt Q13188).
T3 sequence (whole entry): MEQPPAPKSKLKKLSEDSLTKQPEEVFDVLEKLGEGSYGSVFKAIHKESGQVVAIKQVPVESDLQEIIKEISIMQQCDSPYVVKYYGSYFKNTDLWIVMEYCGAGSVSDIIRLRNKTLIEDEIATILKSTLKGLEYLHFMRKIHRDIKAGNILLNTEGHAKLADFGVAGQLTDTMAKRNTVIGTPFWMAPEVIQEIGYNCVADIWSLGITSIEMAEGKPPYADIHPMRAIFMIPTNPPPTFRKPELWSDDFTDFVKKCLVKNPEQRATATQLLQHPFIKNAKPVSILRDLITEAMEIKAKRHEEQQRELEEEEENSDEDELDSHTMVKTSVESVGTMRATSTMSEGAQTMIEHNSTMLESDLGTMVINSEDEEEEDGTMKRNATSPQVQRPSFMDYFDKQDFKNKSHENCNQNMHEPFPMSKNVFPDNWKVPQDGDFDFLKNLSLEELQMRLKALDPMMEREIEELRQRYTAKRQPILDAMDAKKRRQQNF
The experiment can be described thus: Selectivity interaction (ActivX KiNativ screen (kinase selectivity in THP-1 cell lysates)) EUB0000639a STK3. The experiment is classed as subcellular. The note with it: lysate, at 1 µM.

Experiment [5] concerns the target Serine/threonine-protein kinase Chk1 (Homo sapiens, UniProt O14757).
The target of experiment [6] is Mitogen-activated protein kinase 10 (Homo sapiens, UniProt P53779). The experiment can be described thus: Selectivity interaction (KinomeScan (DiscoverX)) EUB0000229b MAPK10. The note with it: at 10 µM.
The target in experiment [7] is Cyclin-dependent kinase-like 1 (Homo sapiens) (UniProt Q00532). The experiment can be described thus: Selectivity interaction (KinomeScan (DiscoverX)) EUB0001619a CDKL1. The note with it: at 1 µM.

Structures are written as SMILES.

Chain of Serine/threonine-protein kinase Chk1 (O14757 whole entry): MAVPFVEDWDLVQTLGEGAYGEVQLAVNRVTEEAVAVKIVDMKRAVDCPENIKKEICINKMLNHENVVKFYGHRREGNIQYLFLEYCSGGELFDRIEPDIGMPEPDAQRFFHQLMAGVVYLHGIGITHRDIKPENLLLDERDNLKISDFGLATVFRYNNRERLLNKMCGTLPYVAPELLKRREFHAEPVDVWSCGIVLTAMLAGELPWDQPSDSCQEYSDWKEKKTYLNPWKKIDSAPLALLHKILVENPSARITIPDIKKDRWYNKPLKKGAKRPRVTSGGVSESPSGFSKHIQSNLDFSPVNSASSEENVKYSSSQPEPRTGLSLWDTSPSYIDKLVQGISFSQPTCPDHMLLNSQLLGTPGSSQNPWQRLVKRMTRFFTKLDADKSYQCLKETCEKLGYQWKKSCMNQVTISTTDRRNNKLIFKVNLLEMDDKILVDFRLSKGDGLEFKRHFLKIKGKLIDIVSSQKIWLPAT
Chain of Serine/threonine-protein kinase SIK1 (Homo sapiens) (P57059 whole entry): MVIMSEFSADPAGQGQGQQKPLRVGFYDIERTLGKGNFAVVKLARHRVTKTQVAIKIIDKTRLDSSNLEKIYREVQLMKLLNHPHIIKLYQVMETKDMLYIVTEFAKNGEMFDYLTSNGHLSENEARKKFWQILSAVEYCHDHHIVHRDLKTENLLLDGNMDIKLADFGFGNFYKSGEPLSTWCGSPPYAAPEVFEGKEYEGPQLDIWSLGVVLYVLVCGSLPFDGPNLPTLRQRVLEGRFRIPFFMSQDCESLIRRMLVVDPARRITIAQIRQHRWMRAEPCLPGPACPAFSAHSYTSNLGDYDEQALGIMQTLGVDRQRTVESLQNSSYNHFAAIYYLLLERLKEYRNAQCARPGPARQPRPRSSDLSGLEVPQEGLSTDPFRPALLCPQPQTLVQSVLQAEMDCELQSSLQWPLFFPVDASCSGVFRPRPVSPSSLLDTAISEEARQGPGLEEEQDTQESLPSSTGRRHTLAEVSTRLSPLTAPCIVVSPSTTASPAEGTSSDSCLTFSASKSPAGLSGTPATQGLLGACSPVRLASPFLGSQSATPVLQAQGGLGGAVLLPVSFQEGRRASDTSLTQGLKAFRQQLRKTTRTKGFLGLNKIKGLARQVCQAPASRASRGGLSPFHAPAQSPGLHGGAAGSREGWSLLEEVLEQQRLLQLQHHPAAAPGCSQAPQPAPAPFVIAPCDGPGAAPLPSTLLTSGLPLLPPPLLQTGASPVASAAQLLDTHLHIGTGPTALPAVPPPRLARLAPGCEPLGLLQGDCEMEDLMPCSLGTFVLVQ
Chain of Cyclin-dependent kinase-like 1 (Homo sapiens) (Q00532 whole entry): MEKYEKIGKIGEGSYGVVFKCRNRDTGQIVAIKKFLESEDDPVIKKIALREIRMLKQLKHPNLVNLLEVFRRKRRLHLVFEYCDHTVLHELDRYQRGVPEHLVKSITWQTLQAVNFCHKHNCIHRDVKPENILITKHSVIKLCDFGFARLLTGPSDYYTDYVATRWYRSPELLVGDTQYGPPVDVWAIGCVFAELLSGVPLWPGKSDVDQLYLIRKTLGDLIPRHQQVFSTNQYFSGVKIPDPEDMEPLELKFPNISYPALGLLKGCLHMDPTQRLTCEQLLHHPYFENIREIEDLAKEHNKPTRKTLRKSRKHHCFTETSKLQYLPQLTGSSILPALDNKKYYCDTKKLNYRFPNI
Chain of Mitogen-activated protein kinase 10 (P53779 whole entry): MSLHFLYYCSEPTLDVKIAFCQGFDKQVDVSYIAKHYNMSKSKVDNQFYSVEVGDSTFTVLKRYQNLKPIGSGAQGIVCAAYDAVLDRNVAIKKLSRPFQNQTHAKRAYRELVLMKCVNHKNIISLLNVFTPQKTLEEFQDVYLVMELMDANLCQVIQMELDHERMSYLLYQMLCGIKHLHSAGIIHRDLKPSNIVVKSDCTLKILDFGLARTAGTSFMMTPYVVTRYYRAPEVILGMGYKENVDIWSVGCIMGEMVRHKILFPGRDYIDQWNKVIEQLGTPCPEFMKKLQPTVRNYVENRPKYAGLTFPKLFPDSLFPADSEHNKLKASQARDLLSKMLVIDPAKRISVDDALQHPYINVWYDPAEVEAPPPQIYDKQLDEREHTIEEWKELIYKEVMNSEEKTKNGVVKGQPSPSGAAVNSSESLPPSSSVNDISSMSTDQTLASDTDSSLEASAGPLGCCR

Turning to `O=C(NOC[C@H](O)CO)c1ccc(F)c(F)c1Nc1ccc(I)cc1F`, the % of control in experiment [1] was 48%.
For `Cn1cc(-n2cnc3c(NCc4nc5cc(Cl)c(Cl)cc5[nH]4)nc(N4CCOCC4)nc32)cn1`, the % of control in experiment [2] came to 2.49%. Further, the % of inhibition in experiment [3] is -0.976%.
Turning to `CC[C@@H]1[C@H](F)C(=O)N[C@@H]1COc1nccc2cc(C(N)=O)c(OC)cc12` [ZIMLOVISERTIB], the % of inhibition in experiment [4] was -8%.
In turn, `CCc1cccc(CC)c1NC(=O)c1nn(C)c2c1CCc1cnc(Nc3ccc(C(=O)NC4CCN(C)CC4)cc3OC(F)(F)F)nc1-2` registered a concentration for half-maximal inhibition (IC50) in experiment [5] of over 10 µM.
In experiment [6], `COc1cc(N(C)c2ccnc3ccc(C(F)(F)F)cc23)cc(OC)c1OC` yielded a % binding of 88%.
Consider `N#Cc1cccc(-c2c[nH]c3ncnc(N4CCOCC4)c23)c1`, for which the % of control in experiment [7] turned out to be 100%.
